In patent US20050238635A1, “Use of hyrogen peroxide producting enzyme for treatment of otitis media” (priority 2002, published 2005):

Tests used:
M catarrhalis (Mcat-res) = test: broth test of alpha 4 co-cultured with resistant M catarrhalis (Mcat-res), with amitrole; type: cell-based; settings: amitrole 50 mM in broth, 7 hours, 37° C.
Method: Amitrole is an irreversible catalase inhibitor [12]. If an increased or more efficient catalase production was involved in the development of resistance of M cararrhalis to an isolate of AHS. This resistance would be reverted by addition of amitrole. In broth tests with alpha 4 together with M catarrhalis in 5 ml broth, 50 mM (0.1 ml) of amitrole (3-amino-1,2,4-triazole), was added into the solution and incubated for 7 hours at 37° C. in air with intermittent shaking. The isolate of M catarrhalis (Mcat-res) had developed resistance against alpha 4 after co-culturing in broth. CFU counts were calculated at start and after 7 hours of incubation. Alpha 4 with M catarrhalis in broth without amitrole, broth and M catarrhalis alone and M catarrhalis alone with amitrole in broth served as controls.

[1] = trypsin tested together with hydrogen peroxide for catalase effect; type: biochemical
H influenzae = test: filtrate test: inhibitory effect of cell-free PBS filtrate of AHS on growth (CFU) of H influenzae; type: cell-based
Method: Numbers of colony forming units (CFU) were counted after serial dilutions in PBS and growth over night at 37° C. in air. Identification of the bacteria was based on different morphology of the isolates growing on the agar plates. AHS and M catarrhalis were grown on agar plates with 7% human blood and McLeod plates were used when H influenzae was assayed.
To achieve a filtrate with inhibitory activity, about 10^6 CFU of AHS were inoculated in 4 vials, each containing 15 ml of broth and incubated for 12 hours. The suspension was then centrifuged at 3000 rpm for 15 min and the supernatant was thrown away. The bacteria were transferred into one vial and two ml of phosphate buffered saline (PBS) was added and incubated at 37° C. for 5 hours. The suspension was then passed through a 0.2 μm sterile filter to remove the bacteria. Otitis media pathogens (0.1 ml) were then added to the filtrate (1 ml) and incubated at 37° C. The controls were incubated in fresh PBS.
Catalase is a specific enzyme catalyzing the conversion of H2O2 into O2 and H2O. This reaction proceeds rapidly. Purified catalase from human erythrocytes (>30.000U/mg) was used in the assays. The assays were performed as described above in the filtrate tests, with the exception that catalase, 1000 U/ml (=0.01 ml), was added to the vials with filtrate and PBS. […]

## Nc1nc[nH]n1 [amitrole, 3-amino-1,2,4-triazole]
M catarrhalis (Mcat-res)
  sensitivity of resistant M catarrhalis to inhibition of alpha 4 when amitrole added: became sensitive

## Trypsin
[1]
  catalase effect: no catalase effect
H influenzae; trypsin 2.5 mg/ml, filtrate incubated with H influenzae
  reversal of the inhibitory effect of the cell-free filtrate of alpha 89: only slightly reverse

B1: Catalase: Purified catalase from human erythrocytes; enzyme catalyzing the conversion of H2O2 into O2 and H2O (protein, UniProt P04040 2-527, looked up)
Catalase: ADSRDPASDQMQHWKEQRAAQKADVLTTGAGNPVGDKLNVITVGPRGPLLVQDVVFTDEMAHFDRERIPERVVHAKGAGAFGYFEVTHDITKYSKAKVFEHIGKKTPIAVRFSTVAGESGSADTVRDPRGFAVKFYTEDGNWDLVGNNTPIFFIRDPILFPSFIHSQKRNPQTHLKDPDMVWDFWSLRPESLHQVSFLFSDRGIPDGHRHMNGYGSHTFKLVNANGEAVYCKFHYKTDQGIKNLSVEDAARLSQEDPDYGIRDLFNAIATGKYPSWTFYIQVMTFNQAETFPFNPFDLTKVWPHKDYPLIPVGKLVLNRNPVNYFAEVEQIAFDPSNMPPGIEASPDKMLQGRLFAYPDTHRHRLGPNYLHIPVNCPYRARVANYQRDGPMCMQDNQGGAPNYYPNSFGAPEQQPSALEHSIQYSGEVRRFNTANDDNVTQVRAFYVNVLNEEQRKRLCENIAGHLKDAQIFIQKKAVKNFTEVHPDYGSHIQALLDKYNAEKPKNAIHTFVQSGSHLAAREKANL
H influenzae; catalase 1000U/ml, filtrate of alpha 89 incubated with H influenzae
  reversal of the inhibitory effect of the cell-free filtrate of AHS: completely reverse
